This data set is described as follows: Human HepG2 cell viability assay in 384 well format. The data set is classed as toxicity, cell-based. Further details: dose 125 nL, time 70.5 hour; concentration not given beside the values. Conditions: HepG2 cells, read-out: Inhibition.
Turning to `CC(c1ccc(Cl)cc1)N1CCN(CCCS(C)(=O)=O)CC1` (centres undefined), the cytotoxicity at 70.5 h turned out to be 1.48%.
Then `Cc1nc(N2CCCC2)ncc1-c1cc(O)nc(N2CCOCC2)n1`, with -4.64%; and `O=C1OCCN1Cc1cc(C(F)(F)F)ccc1F`, with -7.38%; and `Cc1noc(CNC(=O)c2ccccc2-n2cc(CN)cn2)n1`, with -5.09%.
In the case of `COc1cc(CNC(C)c2ccc(F)c(F)c2)cc2c1OCCO2` (centres undefined) it was 1.07%; in that of `O=C(Nc1cccnc1)[C@H]1CN(Cc2cccs2)C[C@H]2OCC[C@@H]12`, -10.8%; in that of `Cc1nc(C)n(CC2CCCCN2CC(=O)N(C)Cc2ccco2)n1` (centres undefined), -1.35%.
Then `Cc1ccccc1N1CCCN(C(=O)c2cn(C)c3ccccc23)CC1`, with -8.98%; and `Cc1nc2c(c(N3CCC(O)(CN4CCCC4)CC3)n1)CCN(C)CC2`, with -3.57%.
`CCC1(CNCc2ncc[nH]2)CCCC1`: the cytotoxicity at 70.5 h was -13.3%.
For the molecule `CCSCCNc1nc(-c2ccccn2)nc2c1c(C)nn2C`, the cytotoxicity at 70.5 h was 2.98%.
Take `Cc1cc(C2CCCN2C(=O)Nc2cn[nH]c2)on1` (centres undefined): the cytotoxicity at 70.5 h is -4.06%.
Then `Cc1noc(CN2CCCC(Cn3nc(C)nc3C)C2)n1` (centres undefined), with -6.06%; and `CSc1ncc(Cl)c(C(=O)NC(Cc2ccccc2)C(=O)O)n1` (centres undefined), with 15%.
Then `O=C(Nc1nc2c(s1)CN(S(=O)(=O)C1CC1)CC2)C1CC1`, with 27%; and `CC(C)c1nc(S(=O)(=O)N(C)c2cc(F)ccc2F)c[nH]1`, with -4.89%.
Then `NC(=O)c1ccc(OCC(=O)NC2CCc3c(F)cccc32)cc1` (centres undefined), with -5.14%.
Regarding `CCC1CN(CC(=O)NC2(C#N)CCCC2)CCN1CCOC` (centres undefined), the cytotoxicity at 70.5 h was -6.19%.
In the case of `Cc1ccnn1CCC(=O)N1CCCC1c1cc2cccnc2[nH]1` (centres undefined) it was 1.14%; in that of `COCCN(Cc1ccc(C)o1)C(=O)Nc1nnc2ccccn12`, -16.7%.
In the case of `O=C(c1ccco1)N1CCOCC2(C1)CN(c1ccoc1)C(=O)CO2` (centres undefined) it was -10%.
As to `O=C(N[C@@H]1CN(Cc2ccc(F)c(F)c2)C[C@H]1O)c1cscn1`, the cytotoxicity at 70.5 h was -5.02%.
In the case of `Cc1ccc2c(c1)C1(CCN(C(=O)C3CC3)CC1)CC2N1CCOCC1` (centres undefined) it was -3.95%; in that of `COCCOc1ccccc1C(=O)Nc1c(C)cnn1CC1CC1`, -6.01%.
Take `COCCN(C)CCN1CC2(CCN(C3CCCOC3)CC2)OC1=O` (centres undefined): the cytotoxicity at 70.5 h is 3.4%.
Take `Cc1cc(C)n(CC2CCCN2CC(=O)NC2CCOCC2)n1` (centres undefined): the cytotoxicity at 70.5 h was -15.9%.
In the case of `Cc1ccc(CN2CCOC3(CCN(C(=O)C4CC=CC4)CC3)C2)cc1`, the cytotoxicity at 70.5 h is -2.99%.
Regarding `OC1CCN(C2CCN(Cc3cccc(Cn4cccn4)c3)CC2)CC1`, the cytotoxicity at 70.5 h was found to be 5.45%.
Then `O=c1[nH]c(=O)n(CC(O)c2ccccc2Cl)cc1Cl` (centres undefined), with -5.98%; and `CCc1ccccc1OC1CN(C(=O)CN(C)Cc2cccnc2)C1`, with 14%.
In the case of `O=C(c1cnccn1)N1CCOCC2(CCN(C3CCOCC3)C2)C1` (centres undefined) it was -15.5%; in that of `CCNc1cc2c(nn1)CCN(C(=O)Cc1c(C)nn(C)c1C)C2`, -2.18%.
On to `Oc1cccc(CN2C[C@H]3CC[C@@H]2CN(Cc2ccncc2)C3)c1`, for which the cytotoxicity at 70.5 h is -12.3%.
As for `N#CCCN(C(=O)CN1CCCC1c1cccs1)c1ccccc1F` (centres undefined), the cytotoxicity at 70.5 h was 1.76%.
Consider `NC1CCCc2c1cnn2-c1cc(F)cc(F)c1` (centres undefined), for which the cytotoxicity at 70.5 h was -4.65%.
In the case of `O=C(NCc1nncn1-c1ccccc1)C1CCCCC1`, the cytotoxicity at 70.5 h is -0.117%.
For `NC(=O)c1ccc(CNC2CCCSC2)cc1` (centres undefined), the cytotoxicity at 70.5 h is -1.72%.
In the case of `CN1CC2(CCCN(Cc3cccc(Oc4ccccc4)c3)C2)OC1=O` (centres undefined) it was 24.6%.
Then `Cc1cccc(CNC(=O)CC2CCN(Cc3ccccn3)CC2)n1`, with -1.17%; and `C=C(C)CN(CC)C(=O)CN1CCCC1C(=O)N(C)C` (centres undefined), with -4.6%; and `COc1ccccc1CC(C)CC(=O)NC(C)C` (centres undefined), with 0.743%.
Then `COCCN(CCOC)c1ncccc1I`, with -4.47%; and `Cc1c(NC(=O)NC(C)CCO)cccc1OC1CCCC1` (centres undefined), with -2.19%; and `Cn1ccc(C(=O)Nc2cc(F)ccc2OCC2CCCO2)cc1=O` (centres undefined), with -8.3%.
Turning to `O=C(c1ccc(Cl)c(Cl)c1)N1CCCC(n2cncn2)C1` (centres undefined), the cytotoxicity at 70.5 h is -14%.
As to `CCn1cc(CN2CCCN(C(=O)CCSC)CC2)cn1`, the cytotoxicity at 70.5 h was -1.89%.
Then `O=C1CC[C@@H](CN(Cc2ccncc2)Cc2nc(-c3cccs3)no2)N1`, with -3.48%; and `Cc1ccc(N2CCC3(CCN(C(=O)C4CCOC4)CC3)CC2)nn1` (centres undefined), with -3.84%.
Then `Cn1ccnc1-c1cccc(NC(=O)NCC(=O)NC(C)(C)C)c1`, with 4.86%; and `CN(CC1(C)COC1)C(=O)c1cc(-c2cnn(C)c2)nc2ccccc12`, with -6.09%.
Then `CNC(=O)CN(C)C(=O)c1ccc(-c2nc(C)cs2)cc1`, with -5.78%; and `O=C(CN1CCCCC1=O)N1CCC2(CC1)[C@H](O)C[C@@H]2O`, with -3.31%.
With `Cc1cc(C)cc(OCCC(=O)NC2CC(=O)N(C)C2)c1` (centres undefined), the cytotoxicity at 70.5 h is -0.646%.
In the case of `CCCN(C(=O)COCC)c1cccc(C)c1` it was -4.58%; in that of `COc1cccc(CNC2CCc3ccc(C)cc32)n1` (centres undefined), -9.15%.
With `c1ccc(CCCn2cc(-c3nc(CN4CCOCC4)no3)nn2)cc1`, the cytotoxicity at 70.5 h was -15%.
Turning to `Cc1ccc(C(=O)NC2CCN(Cc3noc(CC(C)C)n3)CC2)s1`, the cytotoxicity at 70.5 h worked out at 7.31%.
Then `CCN(Cc1ccncc1)c1cc(C2CCNCC2)nc(C)n1`, with 19.5%; and `O=C1CCC(C(=O)Nc2cnn(-c3ccccc3Cl)c2)N1` (centres undefined), with -9.74%.
Consider `CCOC(=O)c1n[nH]cc1-c1cncn1CCCn1nc(C)cc1C`, for which the cytotoxicity at 70.5 h was -5.33%.
Then `O=C(C[C@@H]1COC[C@H]2CN(Cc3ccccc3)C[C@@H]12)N1CCCC1`, with -14.4%; and `c1cncc(CN2CCc3c(CNc4nccs4)n[nH]c3C2)c1`, with -25%.
For the molecule `O=C(C1CNCCO1)N1CCCC(c2ccccc2)(c2ccccc2)C1` (centres undefined), the cytotoxicity at 70.5 h was -0.462%.
Consider `CN(Cc1nc2c(cnn2C)c(=O)[nH]1)Cc1ccc(F)cc1F`, for which the cytotoxicity at 70.5 h was -10.6%.
Then `CCc1ccc2nc(C)cc(C(=O)NCc3csc(N(C)C)n3)c2c1`, with 16.3%.
In the case of `O=C(c1coc(COc2cccc3cnccc23)n1)N1CCSCC1`, the cytotoxicity at 70.5 h was -5.09%.
On to `CN(C)C(=O)NC1COC2(CCN(C(=O)Nc3ccccc3)CC2)C1` (centres undefined), for which the cytotoxicity at 70.5 h worked out at 7.49%.
Take `CN(Cc1cn2c(n1)CN(C(=O)C1CCCO1)CC2)Cc1ccco1` (centres undefined): the cytotoxicity at 70.5 h was -3.64%.
In the case of `CC(C)NC(=O)N1CCN(C(=O)NC(C)C)CC2(CNC(=O)C2)C1` it was 2.71%; in that of `c1ccc(CCN2CCCC2c2cncc(Nc3nncs3)n2)cc1` (centres undefined), 10.6%.
Then `CCO[C@H]1CO[C@@]2(CCCN(S(=O)(=O)c3cccnc3)C2)C1`, with -11.8%.
Consider `CC(C(=O)NCc1cccc(N2CC=CC2)c1)n1cccn1` (centres undefined), for which the cytotoxicity at 70.5 h is -7.35%.
`CC(O)C(=O)N1CCC(c2nccn2Cc2cscn2)CC1` (centres undefined): the cytotoxicity at 70.5 h came out at 23.7%.
In the case of `CC(C)CN1CCCC2(CCN(c3ccc(C#N)cn3)C2)C1` (centres undefined) it was 2.01%.
Regarding `CC(C)(C)c1cc(=O)[nH]c(-c2ccccc2CN2CCC[C@@H](O)C2)n1`, the cytotoxicity at 70.5 h is -2.12%.
With `CCc1nnc(CN2CCC(C3CCCCCN3C(C)=O)CC2)o1` (centres undefined), the cytotoxicity at 70.5 h was found to be 8.88%.
Regarding `Cc1ccc(CN2CCC3(CCCC(=O)N3)CC2)s1`, the cytotoxicity at 70.5 h was -3.64%.
In the case of `CCN1CCCN(S(=O)(=O)c2cnc3onc(C)c3c2)CC1` it was -7.12%.
For the molecule `CC1CN(c2ncnc3sccc23)CCN1c1nccs1` (centres undefined), the cytotoxicity at 70.5 h is -0.696%.
As to `CS(=O)(=O)N1CC[C@H]2OCC[C@@]2(C(=O)NCc2ccccn2)C1`, the cytotoxicity at 70.5 h was -2.32%.
Take `Cc1ncsc1C(=O)NC1CCN(Cc2ccc(C#N)cc2)CC1`: the cytotoxicity at 70.5 h is -14.1%.
In the case of `CCNC(=O)N(CCCO)C1CCCc2ccccc21` (centres undefined) it was -3.93%; in that of `CS(=O)(=O)Nc1nn(Cc2ccc(F)cc2)cc1Br`, -3.65%; in that of `O=C(NCCCO)Nc1cccc(Cl)c1F`, -8.31%.
In the case of `COc1ccc(-c2nc(CCNC(=O)NC3CCC(O)CC3)co2)cc1` (centres undefined) it was 17.3%; in that of `CC(C(=O)O)n1nc(C(F)(F)F)c(Cl)c1C1CC1` (centres undefined), 5.37%.
As for `Cn1cncc1-c1nnc([C@H]2CCN(CC3CCCCC3)C2)o1`, the cytotoxicity at 70.5 h was -1.28%.
In the case of `Cc1csc(C(Cc2ccsc2)NC(=O)C2CCN(S(C)(=O)=O)CC2)n1` (centres undefined) it was -10%; in that of `O=C(C1CC1)N1CCN(C(=O)C2CC(=O)N(c3ccccc3Br)C2)CC1` (centres undefined), 26.2%.
Turning to `CCS(=O)(=O)CCCOc1nc(-c2ccccc2Cl)no1`, the cytotoxicity at 70.5 h was -96.6%.
Regarding `Cc1cccc(CN2CC[C@@H]3[C@@H](CO[C@H]3CNc3ncccn3)C2)n1`, the cytotoxicity at 70.5 h is -8.04%.
In the case of `CN(C)CCCn1ccc(-c2cccc(-c3ccccn3)c2)n1` it was 15.8%; in that of `O=C(CCc1cc(O)no1)N1CCCC(OCc2cccnc2)C1` (centres undefined), -10.1%.
In the case of `O=C(NC1CCC1)[C@@H]1CCO[C@@H]2CCN(C3CCCC3)C[C@H]21` it was -3.8%; in that of `CCC(C)NC(=O)CS(=O)(=O)Cc1cc(Cl)ccc1OC` (centres undefined), -12%.
Take `COc1cc(C(=O)N(C)C)ccc1NC(=O)c1ccsc1`: the cytotoxicity at 70.5 h is 1.32%.
Then `O=C(CCc1cccnc1)N1CCCC(n2cncn2)C1` (centres undefined), with -2.85%; and `CS(=O)(=O)N1CCCC12CCCN(C(=O)c1ccnnc1)C2` (centres undefined), with -11.3%.
As for `CCC(C)c1noc(C2CCN(C(=O)c3cccs3)CC2)n1` (centres undefined), the cytotoxicity at 70.5 h was -10.7%.

(Values after ChEMBL document CHEMBL3507680, “University of Dundee, Gates Library screen for HepG2 cell viability”.)
